The record followed here is ChEMBL document CHEMBL4251716, “Miuramides A and B, Trisoxazole Macrolides from a Mycale sp. Marine Sponge That Induce a Protrusion Phenotype in Cultured Mammalian Cells” (J Nat Prod, 2018).

Active and inactive are the calls of the source. The calls are words filed in the database; no cut-off is given here.

What all share (type): functional, cell-based
Assay [1] deals with 3Y1 cell line. The assay is described as follows: Induction of morphological changes in rat 3Y1 cells assessed as protrusions in cell membrane at 41 uM measured after 5 mins to 48 hrs by IncuCyte live cell imaging method.
Assay [2] concerns 3Y1 cell line. The assay is described as follows: Cytotoxicity against rat 3Y1 cells after 72 hrs by MTT assay. The note with it: 3Y1, 72 h. For orientation: Tetrazolium dyes change colour on reduction, which living cells bring about.
For assay [3], the system named is 3Y1 cell line. The assay is described as follows: Induction of morphological changes in rat 3Y1 cells assessed as protrusions in cell membrane at 2.7 uM measured after 5 mins to 48 hrs by IncuCyte live cell imaging method.
Assay [4] concerns 3Y1 cell line. The assay is described as follows: Induction of morphological changes in rat 3Y1 cells assessed as protrusions in cell membrane at 0.05 uM measured after 5 mins to 48 hrs by IncuCyte live cell imaging method.
The test system of assay [5] is 3Y1 cell line. Description: Induction of morphological changes in rat 3Y1 cells assessed as protrusions in cell membrane at 1.9 uM measured after 5 mins to 48 hrs by IncuCyte live cell imaging method.
Assay [6] relates to 3Y1 cell line. The assay is described as follows: Induction of morphological changes in rat 3Y1 cells assessed as protrusions in cell membrane at 4.2 uM measured after 5 mins by IncuCyte live cell imaging method.

As for `C=C1[C@@H](C)[C@H]2[C@H](Cc3ccccc3)NC(=O)[C@]23OC(=O)/C=C/[C@@H](O)CCC[C@@H](C)C/C=C/[C@H]3[C@@H]1O`, the outcome in assay [1] was Active. As a reminder, the IC50 is the concentration needed to halve the response being measured. In assay [2], `CO[C@H]([C@H](C)/C=C/N(C)C=O)[C@@H](C)C(=O)CC[C@H](C)[C@H](C[C@@H]1OC(=O)C[C@@H](O)C/C=C/C(=O)[C@H](C)[C@H](OC)c2coc(n2)-c2coc(n2)-c2coc(n2)/C=C/C[C@H](OC)[C@H]1C)OC` yielded an IC50 of 7 nM. This lies in the single-digit nanomolar range. `COC[C@@H](OC)C(=O)O[C@H](CC[C@H](C)[C@H](C[C@@H]1OC(=O)C[C@@H](O)C/C=C/C(=O)[C@H](C)[C@H](OC)c2coc(n2)-c2coc(n2)-c2coc(n2)/C=C/C[C@H](OC)[C@H]1C)OC)[C@H](C)[C@H](OC(C)=O)[C@H](C)/C=C/N(C)C=O`: the outcome in assay [3] was Active.

Take `CO[C@H]1C[C@H](CC[C@H](C)[C@H](O)[C@H](C)[C@H]2OC(=O)/C(C)=C/C[C@H](O)C[C@@H]3C=CC[C@@H](C[C@H](OC)[C@@H](C)[C@@H](O)C[C@@H](O)[C@H](C)[C@@H]([C@@H](C)[C@@H](O)[C@@H](C)CC[C@H]4C[C@H](OC)C[C@H](C)O4)OC(=O)/C(C)=C/C[C@H](O)C[C@@H]4C=CC[C@@H](C[C@H](OC)[C@@H](C)[C@@H](O)C[C@@H](O)[C@@H]2C)O4)O3)O[C@@H](C)C1`: the outcome in assay [4] was Active. With `C/C1=C/C(=O)O[C@@H]2C[C@@H](CC[C@H](C)/C=C\C=C\CC1)O[C@@](O)([C@@H]1CSC(=O)N1)C2`, the result in assay [5] was Active.

Take `CO[C@@H]([C@@H](C)[C@@H](CC[C@H](C)[C@H](C[C@@H]1OC(=O)C[C@@H](O)C/C=C/C(=O)[C@H](C)[C@H](OC)c2coc(n2)-c2coc(n2)-c2coc(n2)/C=C/C[C@H](OC)[C@H]1C)OC)OC(=O)[C@@H](C)OC)[C@H](C)/C=C/N(C)C=O`: the result in assay [6] was Active. In assay [2], half-maximal inhibition (IC50) was put at 7 nM.
